Data on 17 molecules can be found in publication PMC6095594, “Pre-clinical evaluation of quinoxaline-derived chalcones in tuberculosis” (PLoS ONE, 2018).

Values after ≈ are worked out from the molar mass of the structure shown. Where two headings read alike, the source gives them in different places. Some results are limits rather than exact numbers.

For data set [1], the system named is M. tuberculosis H37Rv strain. Put plainly: microbe, parasite or virus in culture. It is filed as cell-based.
A further data set relates to S. typhimurium TA100. The data set can be described thus: Salmonella/microsome mutagenicity test. How it is done: (§1) Salmonella typhimurium strains TA98, TA97a, TA100, TA1535, and TA102 were provided by MOLTOX® (Molecular Toxicology Inc. USA). Mutagenicity was assayed according to the pre-incubation procedure following the recommendation described in Mortelmans and Zieger (2000). […] Briefly, 100 μL of test bacterial cultures (1–2 x 10^9 cells/mL) were incubated at 37 °C with different concentrations of N9 (10–400 μg/plate) in the presence or absence of S9 mix, for 20 min, without shaking. […] Plates were incubated in the dark at 37 °C for 48 h before counting the revertant colonies. Assays were repeated twice and the plating for each concentration was conducted in triplicate. Data were evaluated by one-way analysis of variance (ANOVA), followed by Dunnett's post-test, using GraphPad Prism 5.0 (GraphPad, San Diego, CA, USA).

A further data set concerns S. typhimurium TA1535. The data set can be described thus: Salmonella/microsome mutagenicity test. The protocol:
as §1

A further data set relates to S. typhimurium TA102. The data set can be described thus: Salmonella/microsome mutagenicity test. Particulars: TA102, +S9, positive control 5 μg/plate. The protocol: (§2) Salmonella typhimurium strains TA98, TA97a, TA100, TA1535, and TA102 were provided by MOLTOX® (Molecular Toxicology Inc. USA). Mutagenicity was assayed according to the pre-incubation procedure following the recommendation described in Mortelmans and Zieger (2000). […] Briefly, 100 μL of test bacterial cultures (1–2 x 10^9 cells/mL) were incubated at 37 °C with different concentrations of N9 (10–400 μg/plate) in the presence or absence of S9 mix, for 20 min, without shaking. […] 2-aminoanthracene (2-AA, 5 μg/plate) was used as positive control for all strains in the presence of metabolic activation (with S9 mix). […] Plates were incubated in the dark at 37 °C for 48 h before counting the revertant colonies. Assays were repeated twice and the plating for each concentration was conducted in triplicate. Data were evaluated by one-way analysis of variance (ANOVA), followed by Dunnett's post-test, using GraphPad Prism 5.0 (GraphPad, San Diego, CA, USA).

Another data set relates to S. typhimurium TA97a. The data set can be described thus: Salmonella/microsome mutagenicity test. Particulars: +S9, positive control 5 μg/plate. The protocol:
as §2

The subject of the next data set is S. typhimurium TA98. The data set can be described thus: Salmonella/microsome mutagenicity test. Particulars: TA98, +S9, positive control 5 μg/plate. The protocol:
as §2

Another data set deals with M. tuberculosis H37Rv. Put plainly: Checkerboard assay, two-drug combination with REMA readout. It counts as cell-based, Mycobacterium tuberculosis. Particulars: for MIC: Mycobacterium tuberculosis, read-out: MIC Alone, checkerboard, drug alone, three independent experiments.
Data set [2] relates to M. tuberculosis H37Rv strain. Also on record: method as in Abbadi, 2018. The following applies: ref Abbadi, 2018; cited from earlier work.
In data set [3] the test system is M. tuberculosis pan-susceptible clinical isolate CDCT-28. The data set can be described thus: microbe, parasite or virus in culture. It counts as cell-based. Particulars: Mycobacterium tuberculosis.
Data set [4] relates to M. tuberculosis pNIP::control. The data set can be described thus: microbe, parasite or virus in culture. It is filed as cell-based. Particulars: Mycobacterium tuberculosis; pNIP::control (empty vector).
The subject of data set [5] is M. tuberculosis pNIP::KatG(WT). The data set can be described thus: microbe, parasite or virus in culture. It is filed as cell-based. The following applies: Mycobacterium tuberculosis.
Data set [6] concerns M. tuberculosis pan-susceptible clinical isolate CDCT-28. The following applies: cited from earlier work.
The mark [7] stands for this setting: Mycobacterium tuberculosis, H37RV, read-out: MIC.
The mark [8] stands for this setting: TA100, +S9, positive control 5 μg/plate.
Where [9] appears, read: TA1535, +S9, positive control 5 μg/plate.
Setting [10] is: TA100, -S9, positive control 1 μg/plate.
Setting [11] is: TA1535, -S9, positive control 1 μg/plate.

`COc1ccc(C(=O)/C=C/c2ccc3nccnc3c2)c(OC)c1OC` [N36]: the MIC in [1] (setting [7]) worked out at 25 µg/mL (≈ 71.4 µM).
On to `O=C(/C=C/c1ccc2nccnc2c1)c1ccc2c(c1)OCO2` [N3], for which the MIC in data set [1] (setting [7]) is above 25 µg/mL.
`Nc1ccc2cc3ccccc3cc2c1` [2-AA, 2-aminoanthracene, reference compound]: the “MI: mutagenic index” value in the data set on S. typhimurium TA100 (setting [8]) turned out to be 11.03; in the data set with S. typhimurium TA1535 (setting [9]), 6.96; with S. typhimurium TA102, 3.62; in the data set on S. typhimurium TA97a, 6.44; in the data set with S. typhimurium TA98, 39.65. Besides, the Number of revertants/plate in the data set with S. typhimurium TA100 (setting [8]) stood at 1279.0±50.2 Rev/plate; in the data set on S. typhimurium TA1535 (setting [9]) it was 58.0±12.7 Rev/plate; in the data set with S. typhimurium TA102 it was 1354.0±21.1 Rev/plate; in the data set on S. typhimurium TA97a, 742.0±59.4 Rev/plate; with S. typhimurium TA98 it was 1586.0±161.2 Rev/plate.
Regarding `[N-]=[N+]=[N-].[Na+]` [NaN3, sodium azide, reference compound], in the data set with S. typhimurium TA100 (setting [10]), the “MI: mutagenic index” value stood at 6.03 and the Number of revertants/plate was determined as 695.5±40.3 Rev/plate. Also, in the data set on S. typhimurium TA1535 (setting [11]), the “MI: mutagenic index” value was determined as 100.0 and the Number of revertants/plate was found to be 1133.0±179.6 Rev/plate.
As for `COc1c(N2C[C@@H]3CCCN[C@@H]3C2)c(F)cc2c(=O)c(C(=O)O)cn(C3CC3)c12` [MFX, moxifloxacin, reference compound], the MIC is 0.15 µg/mL in the data set on M. tuberculosis H37Rv (H37RV) and below 0.2 µg/mL in data set [2]. For the same molecule, the “Improvement of MIC of MFX in the presence of N9” value in the data set with M. tuberculosis H37Rv (all three experiments) came out at 4 fold.
As to `COc1cc(C(=O)/C=C/c2ccc3nccnc3c2)cc(OC)c1O` [N20], the MIC in data set [1] (setting [7]) was above 25 µg/mL.
Consider `COc1cc(C(=O)/C=C/c2ccc3nccnc3c2)cc(OC)c1OC` [N15], for which the figures for the MIC in data set [1] (H37Rv), in data set [1] (setting [7]) and in data set [3] were 6.25 µg/mL (≈ 17.8 µM), 3.13 to 12.5 µg/mL (≈ 8.93 to 35.7 µM) and 3.13 µg/mL (≈ 8.93 µM), respectively.
In the case of `O=C(/C=C/c1ccc2nccnc2c1)c1ccc(Br)cc1` [N4], in data set [1] (setting [7]), the MIC was above 25 µg/mL.
In the case of `COc1cccc(C(=O)/C=C/c2ccc3nccnc3c2)c1` [N23], the MIC is 5 µg/mL (≈ 17.2 µM) in data set [1] (H37Rv), 3.13 to 12.5 µg/mL (≈ 10.8 to 43.1 µM) in data set [1] (setting [7]) and 2.5 µg/mL (≈ 8.61 µM) in data set [3].
Consider `O=C(/C=C/c1ccc2nccnc2c1)c1ccc([N+](=O)[O-])cc1` [N7], for which the MIC in data set [1] (setting [7]) was above 25 µg/mL.
With `NNC(=O)c1ccncc1` [INH, isoniazid, reference compound], the MIC was 0.39 µg/mL (≈ 2.84 µM) in data set [1] (setting [7]); 0.39 µg/mL (≈ 2.84 µM) in [3]; below 0.2 µg/mL in data set [4]; below 0.2 µg/mL in data set [5]; 0.31 µg/mL in the data set with M. tuberculosis H37Rv (H37RV). In the data set with M. tuberculosis H37Rv (H37RV), the “MIC Alone” value came out at 0.16 µg/mL.
On to `COc1ccccc1C(=O)/C=C/c1ccc2nccnc2c1` [N19], for which, in [1] (setting [7]), the MIC is above 25 µg/mL.
As for `O=C(/C=C/c1ccc2nccnc2c1)c1ccccc1O` [N6], the MIC in data set [1] (setting [7]) was above 5 µg/mL.
Turning to `N#Cc1cccc(C(=O)/C=C/c2ccc3nccnc3c2)c1` [N34], the MIC in data set [1] (setting [7]) was above 25 µg/mL.
As to `N#Cc1ccc(C(=O)/C=C/c2ccc3nccnc3c2)cc1` [N33], in [1] (setting [7]), the MIC is above 25 µg/mL.
On the same count and under the same terms, then `COc1cc(OC)c(C(=O)/C=C/c2ccc3nccnc3c2)cc1OC` [N17], with above 25 µg/mL.
Take `CO[C@H]1/C=C/O[C@@]2(C)Oc3c(C)c(O)c4c(O)c(c(/C=N/N5CCN(C)CC5)c(O)c4c3C2=O)NC(=O)/C(C)=C\C=C\[C@H](C)[C@H](O)[C@@H](C)[C@@H](O)[C@@H](C)[C@H](OC(C)=O)[C@@H]1C` [RIF, Rifampicin]: the MIC in data set [2] and in [6] was below 0.2 µg/mL throughout.
